One test deals with T1, P2X7 receptor (Homo sapiens, UniProt Q99572).
T1 construct: host or cells: THP-1 cells differentiated with LPS and IFN-γ
T1 sequence (Q99572 1-595): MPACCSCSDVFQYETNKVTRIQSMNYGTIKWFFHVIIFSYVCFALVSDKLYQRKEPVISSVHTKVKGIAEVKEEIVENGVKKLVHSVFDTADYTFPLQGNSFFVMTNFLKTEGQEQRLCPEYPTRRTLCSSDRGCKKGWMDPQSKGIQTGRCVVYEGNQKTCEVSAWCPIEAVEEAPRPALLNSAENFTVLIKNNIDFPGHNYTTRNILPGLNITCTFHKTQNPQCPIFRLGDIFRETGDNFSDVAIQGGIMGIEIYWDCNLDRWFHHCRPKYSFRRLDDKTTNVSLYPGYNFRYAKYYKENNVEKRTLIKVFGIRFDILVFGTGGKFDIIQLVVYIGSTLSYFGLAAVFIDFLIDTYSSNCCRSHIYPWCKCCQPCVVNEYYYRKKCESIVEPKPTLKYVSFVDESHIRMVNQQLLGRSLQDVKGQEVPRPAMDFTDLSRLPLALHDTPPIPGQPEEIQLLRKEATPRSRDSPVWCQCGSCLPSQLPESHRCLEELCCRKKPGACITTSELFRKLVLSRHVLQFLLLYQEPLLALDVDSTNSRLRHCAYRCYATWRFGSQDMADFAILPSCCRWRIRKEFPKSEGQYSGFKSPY
Description: IL-1β release assay in differentiated THP-1 cells stimulated with BzATP (Example 9). Type of test: cell-based. The following applies: 0.1 μM compound (symbols *); differentiated THP-1 cells, BzATP 250 uM; read-out: IL-1β % Inhib. @ 0.3 or 0.1 uM. In outline:
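IC50 derived by four-parameter logistic fit of percent inhibition of IL-1β release (ELISA, background-adjusted). Release triggered by 45 min BzATP at 250 uM final after 30 min compound pretreatment of THP-1 cells previously differentiated 16 h (LPS, IFN-γ, 100 ng/mL each) and re-primed 2 h with LPS.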
For the compound `COc1ccc(CC(=O)Nc2cccc3c(=O)n(C(C)CO)ccc23)c(OC)c1` (centres unmarked) [Compound 120], the inhibition at 0.1 µM lay in the range of 0 to 25%. Still for that read-out and setting: then `CCOc1ccc(CC(=O)Nc2cccc3c(=O)n(CC(C)O)ccc23)cc1` (centres unmarked) [Compound 161], with 0 to 25%.

As to `CC(O)Cn1ccc2c(NC(=O)c3cc(Cl)ccc3Cl)cccc2c1=O` (centres unmarked) [Compound 138], the inhibition at 0.1 µM fell in the range of 0 to 25%.

On to `COc1cccc(CC(=O)Nc2cccc3c(=O)n(CC(C)O)ccc23)c1` (centres unmarked) [Compound 158], for which the inhibition at 0.1 µM fell in the range of 0 to 25%. Consider `COc1ccc(CCC(=O)Nc2cccc3c(=O)n(C(C)CO)ccc23)cc1` (centres unmarked) [Compound 105], for which the inhibition at 0.1 µM was in the range of 0 to 25%. For the compound `COc1ccc(OC)c(CC(=O)Nc2cccc3c(=O)n(CC(C)O)ccc23)c1` (centres unmarked) [Compound 156], the inhibition at 0.1 µM is 26 to 50%. Same read-out and setting: with `CC(CO)n1ccc2c(NC(=O)c3cc4ccccc4o3)cccc2c1=O` (centres unmarked) [Compound 112] the figure was 0 to 25%; with `Cc1cccc(C(=O)Nc2cccc3c(=O)n(CC4(O)CCCCC4)ccc23)c1` [Compound 20], 0 to 25%; with `Cc1ccccc1CCC(=O)Nc1cccc2c(=O)n(C(C)CO)ccc12` (centres unmarked) [Compound 90], 26 to 50%. On the same count and under the same terms, then `CCOc1cccc(C(=O)Nc2cccc3c(=O)n(CC(C)O)ccc23)c1` (centres unmarked) [Compound 132], with 0 to 25%; and `O=C(Cc1ccccc1Cl)Nc1cccc2c(=O)n(CC3(O)CCCCC3)ccc12` [Compound 88], with 0 to 25%; and `Cc1cccc(CCC(=O)Nc2cccc3c(=O)n(CC(C)O)ccc23)c1` (centres unmarked) [Compound 180], with 0 to 25%. Consider `COc1cc(CC(=O)Nc2cccc3c(=O)n(CC(C)O)ccc23)cc(OC)c1` (centres unmarked) [Compound 166], for which the inhibition at 0.1 µM is 0 to 25%.

For the compound `COc1cccc(CCC(=O)Nc2cccc3c(=O)n(CC(C)(C)O)ccc23)c1` [Compound 189], the inhibition at 0.1 µM was 0 to 25%. On to `COc1ccc(CC(=O)Nc2cccc3c(=O)n(C(C)CO)ccc23)cc1` (centres unmarked) [Compound 110], for which the inhibition at 0.1 µM lay within 0 to 25%. For `Cc1cccc(C(=O)Nc2cccc3c(=O)n(CC(C)O)ccc23)c1Cl` (centres unmarked) [Compound 182], the inhibition at 0.1 µM was in the range of 0 to 25%. The same measure, in the same setting: then `CC(CO)n1ccc2c(NC(=O)c3ccc(-c4ccccc4)cc3)cccc2c1=O` (centres unmarked) [Compound 102], with 0 to 25%; and `Cc1ccc(Cl)cc1C(=O)Nc1cccc2c(=O)n(C(C)CO)ccc12` (centres unmarked) [Compound 122], with 0 to 25%. Turning to `Cc1ccccc1CC(=O)Nc1cccc2c(=O)n(CC3(O)CCCCC3)ccc12` [Compound 89], the inhibition at 0.1 µM lay in the range of 0 to 25%. On to `CC(O)Cn1ccc2c(NC(=O)Cc3ccc4c(c3)OCO4)cccc2c1=O` (centres unmarked) [Compound 165], for which the inhibition at 0.1 µM was in the range of 0 to 25%. In the case of `CC(O)Cn1ccc2c(NC(=O)Cc3ccccc3F)cccc2c1=O` (centres unmarked) [Compound 153], the inhibition at 0.1 µM is 0 to 25%.

In the case of `COc1ccccc1CCC(=O)Nc1cccc2c(=O)n(C(C)CO)ccc12` (centres unmarked) [Compound 104], the inhibition at 0.1 µM lay within 0 to 25%.

The same test, now with this note: 0.1 μM compound; differentiated THP-1 cells, BzATP 250 uM; "*" symbols; read-out: IL-1β % Inhib. @ 0.3 or 0.1 uM.
`CC(C)(O)Cn1ccc2c(NC(=O)c3ccc4ccccc4c3)cccc2c1=O` [Compound 206]: the inhibition at 0.1 µM was in the range of 0 to 25%. On the same count and under the same terms, with `Cc1ccc(CC(=O)Nc2cccc3c(=O)n(CC(C)(C)O)ccc23)cc1` [Compound 216] the figure was 0 to 25%. On to `COc1ccc(CC(=O)Nc2cccc3c(=O)n(CC(C)(C)O)ccc23)cc1` [Compound 214], for which the inhibition at 0.1 µM lay within 0 to 25%.

The same test, now with this note: 0.3 μM compound (symbols +); differentiated THP-1 cells, BzATP 250 uM; read-out: IL-1β % Inhib. @ 0.3 or 0.1 uM.
On to `Cc1ccc(CC(=O)Nc2cccc3c(=O)n(CC4(O)CCCCC4)ccc23)cc1` [Compound 35], for which the inhibition at 0.3 µM was in the range of 26 to 50%. Take `CCOc1ccc(CC(=O)Nc2cccc3c(=O)n(CC4(O)CCCCC4)ccc23)cc1` [Compound 34]: the inhibition at 0.3 µM is 0 to 25%. On the same count and under the same terms, then `COc1cc(CC(=O)Nc2cccc3c(=O)n(CC4(O)CCCCC4)ccc23)cc(OC)c1` [Compound 39], with 0 to 25%; and `O=C(Cc1cc(C(F)(F)F)ccc1Cl)Nc1cccc2c(=O)n(CCO)ccc12` [Compound 67], with 0 to 25%; and `COc1ccc(OC)c(CC(=O)Nc2cccc3c(=O)n(CC4(O)CCCCC4)ccc23)c1` [Compound 30], with 0 to 25%. On to `O=C(Nc1cccc2c(=O)n(CCO)ccc12)c1ccc(C(F)(F)F)cc1C(F)(F)F` [Compound 6], for which the inhibition at 0.3 µM is 26 to 50%.

Still in this test, the particulars now being: 0.3 μM compound; differentiated THP-1 cells, BzATP 250 uM; "+" symbols; read-out: IL-1β % Inhib. @ 0.3 or 0.1 uM.
Turning to `C[C@H](C(N)=O)n1ccc2c(NC(=O)Cc3cc(F)c(F)c(F)c3)cccc2c1=O` [Compound 381], the inhibition at 0.3 µM is above 76%. As for `O=C(Cc1ccc(Cl)c(Cl)c1)Nc1c(Cl)ccc2c(=O)n(CCO)ccc12` [Compound 248], the inhibition at 0.3 µM is 0 to 25%. `CC(C(=O)Nc1cccc2c(=O)n([C@@H](C)C(N)=O)ccc12)c1ccc(Cl)c(C(F)(F)F)c1` (some centres unmarked) [Compound 356]: the inhibition at 0.3 µM is above 76%. In the case of `C[C@H](C(N)=O)n1ccc2c(NC(=O)Cc3ccc(F)c(F)c3)cccc2c1=O` [Compound 303], the inhibition at 0.3 µM was above 76%. For `CC(C)(CO)n1ccc2c(NC(=O)Cc3ccc(Cl)c(Cl)c3)cccc2c1=O` [Compound 371], the inhibition at 0.3 µM lay within 51 to 75%. Turning to `C[C@@H](C(N)=O)n1ccc2c(NC(=O)Cc3ccc(Cl)nc3)cccc2c1=O` [Compound 310], the inhibition at 0.3 µM lay in the range of 0 to 25%. For `CC(=O)NCCn1ccc2c(NC(=O)Cc3ccc(Cl)c(C(F)(F)F)c3)cccc2c1=O` [Compound 391], the inhibition at 0.3 µM was above 76%.

As to `C[C@@H](CO)n1ccc2c(NC(=O)Cc3ccc(Cl)c(F)c3)cccc2c1=O` [Compound 334], the inhibition at 0.3 µM lay within 51 to 75%. The same measure, in the same setting: with `C[C@H](C(=O)Nc1cccc2c(=O)n([C@H](C)CO)ccc12)c1ccc(Cl)c(Cl)c1` [Compound 321] the figure was above 76%; with `C[C@H](C(N)=O)n1ccc2c(NC(=O)Cc3ccc(F)c(F)c3F)cccc2c1=O` [Compound 379], above 76%; with `CC(C(=O)Nc1cccc2c(=O)n([C@@H](C)C(N)=O)ccc12)c1cccc(C(F)(F)F)c1F` (some centres unmarked) [Compound 355], above 76%. Take `C[C@H](C(=O)Nc1cccc2c(=O)n([C@H](C)C(=O)O)ccc12)c1ccc(Cl)cc1` [Compound 322, (R)-2-{5-[(S)-2-(4-Chloro-phenyl)-propionylamino]-1-oxo-1H-isoquinolin-2-yl}-propionic acid]: the inhibition at 0.3 µM lay in the range of 26 to 50%. For `CC(=O)NCCn1ccc2c(NC(=O)Cc3ccc(F)c(F)c3)cccc2c1=O` [Compound 392], the inhibition at 0.3 µM was above 76%.

`C[C@H](C(N)=O)n1ccc2c(NC(=O)Cc3ccc(Cl)cc3Cl)cccc2c1=O` [Compound 314]: the inhibition at 0.3 µM was above 76%. In the case of `O=C(Cc1cccc(C(F)(F)F)c1F)Nc1c(NCCO)ccc2c(=O)n(CCO)ccc12` [Compound 385, 2-(2-Fluoro-3-trifluoromethyl-phenyl)-N-[2-(2-hydroxy-ethyl)-6-(2-hydroxy-ethylamino)-1-oxo-1,2-dihydro-isoquinolin-5-yl]-acetamide], the inhibition at 0.3 µM fell in the range of 0 to 25%. The same measure, in the same setting: then `CC(C)(CO)n1ccc2c(NC(=O)Cc3cccc(C(F)(F)F)c3F)cccc2c1=O` [Compound 368], with above 76%.

The same test, now with this note: THP-1, read-out: IL-1β % Inhib. @ 0.3 or 0.1 uM.
In the case of `C[C@@H](C(N)=O)n1ccc2c(NC(=O)Cc3ccc(C(F)(F)F)cc3)c(Cl)ccc2c1=O` [Compound 345, (S)-2-{6-Chloro-1-oxo-5-[2-(4-trifluoromethyl-phenyl)-acetylamino]-1H-isoquinolin-2-yl}-propionamide], the inhibition at 0.3 µM is above 76%.

The test is the same for the next values; noted with them: THP-1 cells, BzATP 250 uM, IL-1β by ELISA.
`CC(=O)NCCn1ccc2c(NC(=O)Cc3ccc(Cl)c(C(F)(F)F)c3)cccc2c1=O` [Compound 391]: inhibition was half-maximal at 0.39 nM (IC50). `CC(=O)NCCn1ccc2c(NC(=O)Cc3ccc(F)c(F)c3)cccc2c1=O` [Compound 392] registered an IC50 of 0.74 nM.
